Reference: US7166452B2, “Aminoketone asymmetric reductase and nucleic acid thereof” (priority 2001, dated 2007)

Columns and labels:
[1] = test system: Mycobacterium smegmatis IAM-12065; assay type: cell-based
[2] = test system: Aspergillus awamori IFO-4033; assay type: cell-based
[3] = test system: Mycobacterium chlorophenolicum IFO-15527; assay type: cell-based
[4] = test system: Penicillium cyaneum IFO-5337; experiment: Influence of inducer addition on d-pseudoephedrine production (Example 6); assay type: cell-based; conditions: cells cultured with inducer 5 g/L, medium 4
[5] = test system: Hypocrea gelatinosa IFO-9165; experiment: as above; assay type: cell-based; conditions: cells cultured with inducer 5 g/L, medium 4
[6] = test system: Nocardioides simplex IFO-12069; assay type: cell-based
[7] = test system: Rhodococcus erythropolis MAK-34; assay type: cell-based
[8] = test system: Absidia lichtheimi IFO-4409; assay type: cell-based
[9] = test system: Helicostylum nigricans IFO-8091; assay type: cell-based
[10] = test system: Aspergillus candidus IFO-5468; assay type: cell-based
[11] = test system: aminoketone asymmetric reductase; experiment: Substrate specificity and enzyme activity of purified enzyme (NADPH absorbance at 340 nm); assay type: biochemical, Rhodococcus erythropolis; conditions: for enzyme acts on the compound (substrate specificity): purified enzyme
Experimental: (§1) While 10 μl of 1 M Tris-hydrochloric acid buffer solution (pH 8.0), 25 μl of 16 mM NADP^+, and 215 μl of the purified enzyme solution were held at 43° C., 1 μl of 1-amino-2-hydroxypropane was added thereto, whereby aminoacetone was produced. The increase or decrease in NADPH accompanying the reaction was measured by the change in absorbance at 340 nm. In the measurement of enzyme activity, the enzyme activity by which 1 μmol of 1-amino-2-hydroxypropane was oxidized per 1 min under the following condition was defined as 1 unit (U). As a result, the whole activity was 126 mU, the specific activity was 432 mU/mg, and the activity yield was 0.22%.
It was similarly confirmed that the enzyme acted on 1-2-methylaminopropiophenone, 1-2-dimethylaminopropiophenone, and 1-amino-2-butanone.

[12] = test system: Armillariella mellea IFO-31616; experiment: Influence of inducer addition on d-pseudoephedrine production (Example 6); assay type: cell-based; conditions: cells cultured with inducer 5 g/L, medium 4
[13] = test system: Klebsiella pneumoniae IFO-3319; assay type: cell-based
[14] = test system: Tritirachium oryzae IFO-7544; assay type: cell-based
[15] = test system: aminoketone asymmetric reductase; assay type: biochemical, Rhodococcus erythropolis; conditions: inhibitor at a concentration of 1 mM; purified enzyme
Experimental: as §1, with “(U).” for “(U). As a result, the whole activity was 126 mU, the specific activity was 432 mU/mg, and the activity yield was 0.22%.”

[16] = test system: Rhodococcus erythropolis MAK-34 strain; assay type: cell-based
[17] = test system: aminoketone asymmetric reductase; experiment: Optimum pH and optimum temperature of purified enzyme; assay type: biochemical, Rhodococcus erythropolis; conditions: 1-amino-2-propanol, NADP+
Experimental: Ten microliters of the purified enzyme solution, 420 μL of water, 20 μL of 1 M Tris-hydrochloric acid buffer solution, and 50 μL of 16 mM aqueous NADP^+ solution was mixed, and incubated at 45° C., and 2 μL of 1-amino-2-propanol were added thereto, so as to react therewith. Using a spectrophotometer, the activity was calculated from the change in absorbance at 340 nm with time (FIG. 2). As a result, the optimum pH was about 8.1.
Ten microliters of the purified enzyme solution, 420 μL of water, 20 μL of 0.1 M PIPES buffer solution (pH 7.5), and 50 μL of 16 mM aqueous NADP^+ solution was mixed, and incubated at various temperatures, and 2 μL of 1-amion-2-propanol were added thereto, so as to react therewith. Using a spectrophotometer, the activity was calculated from the change in absorbance at 340 nm with time (FIG. 3). As a result, the optimum temperature was 55° C.

Molecule: CC(O)CN (centres unmarked) [1-amino-2-hydroxypropane]
- AMOUNT OF PRODUCTION (ADDED) [1]: 0.210 mg
- AMOUNT OF PRODUCTION (ADDED) [2]: 1.170 mg
- AMOUNT OF PRODUCTION (ADDED) [3]: 0.770 mg
- AMOUNT OF PRODUCTION (ADDED) [4]: 1.260 mg
- AMOUNT OF PRODUCTION (ADDED) [5]: 0.640 mg
- AMOUNT OF PRODUCTION (ADDED) [6]: 0.190 mg
- AMOUNT OF PRODUCTION (ADDED) [7]: 1.260 mg
- AMOUNT OF PRODUCTION (ADDED) [8]: 0.220 mg
- AMOUNT OF PRODUCTION (ADDED) [9]: 0.520 mg
- AMOUNT OF PRODUCTION (ADDED) [10]: 0.018 mg
- enzyme acts on the compound (substrate specificity) [11]: acts on
- AMOUNT OF PRODUCTION (ADDED) [12]: 0.460 mg
- AMOUNT OF PRODUCTION (ADDED) [13]: 0.066 mg
- AMOUNT OF PRODUCTION (ADDED) [14]: 0.078 mg

Molecule: CCC(=O)CN [1-amino-2-butanone]
- enzyme acts on the compound (substrate specificity) [11]: acted on

Molecule: NC1CCCCC1O (centres unmarked) [1-amino-2-hydroxycyclohexane]
- AMOUNT OF PRODUCTION (ADDED) [1]: 0.13 mg
- AMOUNT OF PRODUCTION (ADDED) [7]: 0.23 mg

Molecule: c1cnc2c(c1)ccc1cccnc12 [o-phenanthroline]
- enzyme activity inhibited by inhibitor [15]: inhibited

Molecule: CCC(O)CN (centres unmarked) [1-amino-2-hydroxybutane]
- AMOUNT OF PRODUCTION (ADDED) [1]: 0.17 mg
- AMOUNT OF PRODUCTION (ADDED) [7]: 0.65 mg

Molecule: CC(C(=O)c1ccccc1)N(C)C (centres unmarked) [1-2-dimethylaminopropiophenone]
- enzyme acts on the compound (substrate specificity) [11]: acted on

Molecule: O=C(O)CN(CCN(CC(=O)O)CC(=O)O)CC(=O)O [EDTA]
- enzyme activity inhibited by inhibitor [15]: inhibited

Molecule: c1ccc(-c2ccccn2)nc1 [α,α′-dipyridyl]
- enzyme activity inhibited by inhibitor [15]: inhibited

Molecule: CNC(C)C(=O)c1ccccc1 (centres unmarked) [1-2-methylaminopropiophenone]
- enzyme acts on the compound (substrate specificity) [11]: acted on

Molecule: CC(=O)CN [1-amino-2-oxopropane]
- AMOUNT OF PRODUCTION [16]: 1.97 mg
- enzyme acts on the compound (substrate specificity) [11]: reduction activity

B1: aminoketone asymmetric reductase: enzyme purified from Rhodococcus erythropolis MAK-34; SEQ ID NO:1; tetramer of about 28,500 subunits; coenzyme NADP (protein, listed as Rhodococcus erythropolis)
chain: MFNSIEGRSVVVTGGSKGIGLGMVRVFARAGANVLMTARDALTLERAAEGLNGLPGAVSTLQVDVTNPDSLAGMAEVAAERHGGIDVLCANAGIFPSKRLGEMTSEDMDSVFGVNVKGTIHAVQACMPWLETSGRGRVVVTSSITGPVTGYPGWSHYGASKAAQMGFIRTAAIELAPKRITINAVLPGNVITEGLDGLGQEYLDQMASSVPAGSLGSVEDIANAALFFALDEAAYITGQSLIVDGGQVLPESAMALGEL
modifications: tetramer
notes: enzyme purified from Rhodococcus erythropolis MAK-34; tetramer of about 28,500 subunits; coenzyme NADP
- optimum temperature ([17]; PIPES buffer pH 7.5): 55 °C
- optimum pH ([17]; Tris-hydrochloric acid buffer, 45° C.): about 8.1
- specific activity ([11]; oxidation of 1-amino-2-hydroxypropane, NADP+, pH 8.0, 43° C., 1 U = 1 μmol per 1 min): 432 mU/mg
